Tests used:
[1] = daily dose of 200 mg; cited from earlier work
[2] = system: liver cells; assay: in vitro experiments in liver cells, nucleotide status; assay type: cell-based; conditions: incubation with increasing concentrations
[3] = system: pulmonary artery pressure; conditions: in vivo studies; cited from earlier work

COC1=C(OC)C(=O)C(C/C=C(\C)CC/C=C(\C)CC/C=C(\C)CC/C=C(\C)CC/C=C(\C)CC/C=C(\C)CC/C=C(\C)CC/C=C(\C)CC/C=C(\C)CCC=C(C)C)=C(C)C1=O [CoQ10, Coenzyme Q10]
increase in plasma CoQ10 levels [1]: more than six-fold increase

Nc1nc2ncc(CNc3ccc(C(=O)N[C@@H](CCC(=O)O)C(=O)O)cc3)nc2c(=O)[nH]1 [folic acid]
nucleotide status [2]: able to restore the nucleotide status

CC(=O)N[C@@H](CS)C(=O)O [NAC, N-acetyl cysteine]
endotoxin-induced rise in pulmonary artery pressure [3]: attenuates

— US20080146579A1, “TREATMENT OF PATIENTS WITH CHRONIC PULMONARY DISEASES AND NUTRITIONAL COMPOSITIONS THEREFORE” (N.V. Nutricia, priority 2006, published 2008)
